Values of other authors in patent US20080188510A1, “NOVEL METHODS USING ZONISAMIDE” (Eisai R & D Management Co., Ltd., priority 2005, published 2008).

Test system: dopaminergic neurodegeneration induced by MPTP
Conditions: MPTP (1-methyl-4-phenyl-1,2,3,6-tetrahydropyridine) induced; cited from earlier work

In the case of NS(=O)(=O)Cc1noc2ccccc12 [zonisamide, 3-sulfamoylmethyl-1,2-benzisoxazole], the “suppressant action to dopaminergic neurodegeneration induced by MPTP” value is given as “extremely strong suppressant action”.
